The values below are quoted from earlier work in patent publication US20030185915A1, “Synergetic composition for the treatment of psoriasis and other skin disorders and method therefor” (priority 2002, published 2003).

This data set deals with psoriatic arthritis. The following applies: usually within four to eight weeks.

Regarding `O=C(O)c1cc(/N=N/c2ccc(S(=O)(=O)Nc3ccccn3)cc2)ccc1O` [Sulfasalazine], the “fraction of PA patients responding rapidly” value is recorded as “Approximately one-third”.
